Target: recombinant eIF4E (Homo sapiens (Human), UniProt P06730)
Assay: Fluorescence polarization competition assay for eIF4E binding potency
Conditions: inhibition of eIF4E/EDA-m7GDP-ATTO-550 binding; calculated IC50 values, Table 4B; read-out: IC50
Outline: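 FP readout; IC50 fit from 8-point, 3-fold series. 75 nM eIF4E + 20 nM ATTO-550-labelled m7GDP probe, Tris pH 7.5/NaCl/DTT/Tween buffer, 1% DMSO final. 30 min RT equilibration, light-protected.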

Chain of recombinant eIF4E (P06730 whole entry): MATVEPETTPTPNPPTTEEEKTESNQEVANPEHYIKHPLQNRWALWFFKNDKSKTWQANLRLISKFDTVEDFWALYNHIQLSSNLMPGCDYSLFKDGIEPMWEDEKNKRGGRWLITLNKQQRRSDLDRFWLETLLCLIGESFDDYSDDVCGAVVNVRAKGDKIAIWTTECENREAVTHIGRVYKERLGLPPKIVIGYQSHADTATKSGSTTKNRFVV

`Cc1nc2cnc(N(C)C3CCN(C4CC(F)(F)C4)CC3)c(C#N)c2c(=O)n1CC#Cc1ccc(Cl)cc1-c1ccnc2c(C(=O)NS(=O)(=O)CCC#N)csc12` [compound 1826] and `Cc1nc2cnc(N(C)C3CCN(C4CC(F)(F)C4)CC3)c(C#N)c2c(=O)n1CC#Cc1ccc(Cl)cc1-c1ccnc2c(C(=O)NS(=O)(=O)CC(C)(C)C#N)csc12` [compound 1827] are within 1.5-fold of each other in IC50: 18.4 nM for the first, 14.8 nM for the second.

Compared with `Cc1nc2cnc(N(C)C3CCN(C4CC(F)(F)C4)CC3)c(C#N)c2c(=O)n1CC#Cc1ccc(Cl)cc1-c1ccnc2c(C(=O)NS(=O)(=O)c3ccncc3)csc12` [compound 1829], `CCN(c1ncc2nc(C)n(CC#Cc3ccc(Cl)cc3-c3ccnc4c(C(=O)NS(=O)(=O)c5ccncc5)csc34)c(=O)c2c1C#N)C1CCN(C2CC(F)(F)C2)CC1` [compound 1838] is 2-fold higher in IC50: 6.27 nM for the first, 12.3 nM for the second.

Compared with `Cc1nc2cnc(N(C)C3CCN(C4CC(F)(F)C4)CC3)c(C#N)c2c(=O)n1CC#Cc1ccc(Cl)cc1-c1ccnc2c(C(=O)NS(=O)(=O)c3ccccn3)csc12` [compound 1830], `CCN(c1ncc2nc(C)n(CC#Cc3ccc(Cl)cc3-c3ccnc4c(C(=O)NS(=O)(=O)c5ccccn5)csc34)c(=O)c2c1C#N)C1CCN(C2CC(F)(F)C2)CC1` [compound 1840] is 3.3-fold higher in IC50: 8.06 nM for the first, 26.4 nM for the second. The first is the more potent here.

First: Cc1nc2cnc(N(C)C3CCN(C4CC(F)(F)C4)CC3)c(C#N)c2c(=O)n1CC#Cc1ccc(Cl)cc1-c1ccnc2c(C(=O)NS(=O)(=O)c3cccnc3)csc12 [compound 1831]
Second: CCN(c1ncc2nc(C)n(CC#Cc3ccc(Cl)cc3-c3ccnc4c(C(=O)NS(=O)(=O)c5cccnc5)csc34)c(=O)c2c1C#N)C1CCN(C2CC(F)(F)C2)CC1 [compound 1839]
The IC50 of the first is 6.9-fold lower: 5 nM for the first, 34.5 nM for the second. The first is the more potent here.

`Cc1nc2cnc(N(C)C3CCN(C4CC(F)(F)C4)CC3)c(C#N)c2c(=O)n1CC#Cc1ccc(Cl)cc1-c1ccnc2c(C(=O)NS(=O)(=O)Cc3ccccn3)csc12` [compound 1832] and `Cc1nc2cnc(N(C)C3CCN(C4CC(F)(F)C4)CC3)c(C#N)c2c(=O)n1CC#Cc1ccc(Cl)cc1-c1ccnc2c(C(=O)NS(=O)(=O)C3CC(F)(F)C3)csc12` [compound 1833] are within 1.5-fold of each other in IC50: 20.5 nM for the first, 14.8 nM for the second.

`Cc1nc2cnc(N(C)[C@H]3CC[C@H](N(C)CC(F)F)CC3)c(C#N)c2c(=O)n1CC#Cc1ccc(Cl)cc1-c1ccnc2c(C(=O)O)csc12` [compound 1895] and `Cc1nc2cnc(N(C)[C@H]3CC[C@@H](N(C)CC(F)F)CC3)c(C#N)c2c(=O)n1CC#Cc1ccc(Cl)cc1-c1ccnc2c(C(=O)O)csc12` [compound 1896] are within 1.5-fold of each other in IC50: 12.7 nM for the first, 12.2 nM for the second.

Going from `Cc1nc2cnc(N(C)[C@@H]3CC[C@H](N(C)CC(F)F)C3)c(C#N)c2c(=O)n1CC#Cc1ccc(Cl)cc1-c1ccnc2c(C(=O)O)csc12` [compound 1897] to `Cc1nc2cnc(N(C)C3CCN(CC(C)(F)F)CC3)c(C(N)=O)c2c(=O)n1CC#Cc1ccc(Cl)cc1-c1ccnc2c(C(=O)O)csc12` [compound 1961], the IC50 rises from 13.1 nM to 211 nM (16-fold). The first is the more potent here.

`Cc1nc2cnc(/C=C/CN(C)CC(F)(F)F)c(C#N)c2c(=O)n1CCOc1ccc(Cl)cc1-c1ccnc2c(C(=O)O)csc12` [compound 1898] and `Cc1nc2ccc(C(F)(F)F)c(C#N)c2c(=O)n1CCOc1ccc(Cl)cc1-c1ccnc2c(C(=O)O)csc12` [compound 1935] are within 1.5-fold of each other in IC50: 61.3 nM for the first, 80.1 nM for the second.

First: N#Cc1cc(C(F)(F)F)cc2ncn(CCOc3ccc(Cl)cc3-c3ccnc4c(C(=O)O)csc34)c(=O)c12 [compound 1899]
Second: COC(=O)c1csc2c(-c3cc(Cl)ccc3OCCn3c(C)nc4cc(C(F)(F)F)cc(C#N)c4c3=O)ccnc12 [compound 1900]
The IC50 of the first is 160-fold lower: 16.4 nM for the first, 2700 nM for the second. The first is the more potent here.

`Cc1nc2cc(C(F)(F)F)cc(C#N)c2c(=O)n1CC#Cc1ccc(Cl)cc1-c1ccnc2c(C(=O)O)csc12` [compound 1901] and `Cc1nc2cc(C(F)(F)F)cc(C#N)c2c(=O)n1CCOc1cc(F)c(Cl)cc1-c1ccnc2c(C(=O)O)csc12` [compound 1903] are within 1.5-fold of each other in IC50: 35.7 nM for the first, 29.8 nM for the second.

First: Cc1nc2cc(C(F)(F)F)c(Cl)c(C#N)c2c(=O)n1CCOc1ccc(Cl)cc1-c1ccnc2c(C(=O)O)csc12 [compound 1904]
Second: COC(=O)c1csc2c(-c3cc(Cl)ccc3OCCn3c(C)nc4cc(C(F)(F)F)c(Cl)c(C#N)c4c3=O)ccnc12 [compound 1905]
The IC50 of the first is 24-fold lower: 36.9 nM for the first, 881 nM for the second.

Going from `COC(=O)c1csc2c(-c3cc(Cl)ccc3OCCn3c(C)nc4cc(C(F)(F)F)c(CN(C)C)c(C#N)c4c3=O)ccnc12` [compound 1907] to `Cc1nc2ccc(CN(C)C)c(C#N)c2c(=O)n1CCOc1ccc(Cl)cc1-c1ccnc2c(C(=O)O)csc12` [compound 1936], the IC50 falls from 405 nM to 37.4 nM (11-fold). The second is the more potent here.

First: Cc1cc(-c2cc(Cl)ccc2OCCn2c(C)nc3cc(C(F)(F)F)c(CC4CCN(C)CC4=O)c(C#N)c3c2=O)c2scc(C(=O)O)c2n1 (centres unmarked) [compound 1908]
Second: Cc1cc(-c2cc(Cl)ccc2OCCn2c(C)nc3cc(C(F)(F)F)c(-c4ccc(F)c(C)n4)c(C#N)c3c2=O)c2scc(C(=O)O)c2n1 [compound 1909]
The IC50 of the first is 5.6-fold lower: 5.17 nM for the first, 29.2 nM for the second.

First: Cc1ccc(-c2c(C(F)(F)F)cc3nc(C)n(CCOc4ccc(Cl)cc4-c4cc(C)nc5c(C(=O)O)csc45)c(=O)c3c2C#N)cn1 [compound 1910]
Second: CCc1ncc(-c2c(C(F)(F)F)cc3nc(C)n(CCOc4ccc(Cl)cc4-c4cc(C)nc5c(C(=O)O)csc45)c(=O)c3c2C#N)cc1F [compound 1911]
The IC50 of the first is 12-fold higher: 47.4 nM for the first, 4.03 nM for the second.

First: Cc1nc2cc(C(F)(F)F)c(N3CCC4(CC3)CN(CC(F)F)C4)c(C#N)c2c(=O)n1CCOc1ccc(Cl)cc1-c1ccnc2c(C(=O)O)csc12 [compound 1912]
Second: Cc1nc2cc(C(F)(F)F)c(N3CCC4(CC3)CN(CC(F)F)C4)c(C#N)c2c(=O)n1CCOc1ccc(Cl)cc1-c1ccnc2c(C(=O)NS(C)(=O)=O)csc12 [compound 1913]
The IC50 of the first is 3.8-fold lower: 5.96 nM for the first, 22.9 nM for the second. The first is the more potent here.

Compared with `Cc1nc2cc(C(F)(F)F)c(N3CC4(C3)CN(C3CC3)C4)c(C#N)c2c(=O)n1CCOc1ccc(Cl)cc1-c1ccnc2c(C(=O)NS(C)(=O)=O)csc12` [compound 1930], `CCc1cc(-c2cc(Cl)ccc2OCCn2c(C)nc3cc(C(F)(F)F)c(N4CC5(C4)CN(C4CC4)C5)c(C#N)c3c2=O)c2scc(C(=O)NS(C)(=O)=O)c2n1` [compound 1932] is 1.7-fold higher in IC50: 4.81 nM for the first, 8.4 nM for the second.

First: CCc1cc(-c2cc(Cl)ccc2OCCn2c(C)nc3cc(C(F)(F)F)c(N4CC5(C4)CN(C4CC4)C5)c(C#N)c3c2=O)c2scc(C(=O)O)c2n1 [compound 1931]
Second: Cc1cc(-c2cc(Cl)ccc2OCCn2c(C)nc3cc(Cl)c(N4CC5(CCC5)C4)c(C#N)c3c2=O)c2scc(C(=O)O)c2n1 [compound 1950]
The IC50 of the first is 2.1-fold lower: 19.7 nM for the first, 41.7 nM for the second. The first is the more potent here.

`Cc1sc2c(-c3cc(Cl)ccc3OCCn3c(C)nc4c(C)c(C(F)(F)F)c(N5CCN(C)CC5)c(C#N)c4c3=O)ccnc2c1C(=O)O` [compound 1933] and `Cc1c(C(F)(F)F)c(N2CCN(C)CC2)c(C#N)c2c(=O)n(CCOc3ccc(Cl)cc3-c3ccnc4c(C(=O)O)csc34)c(C)nc12` [compound 1934] are within 1.5-fold of each other in IC50: 34.6 nM for the first, 38.5 nM for the second.

First: Cc1nc2cc(F)cc(C#N)c2c(=O)n1CCOc1ccc(Cl)cc1-c1ccnc2c(C(=O)O)csc12 [compound 1937]
Second: Cc1nc2cc(C(F)F)cc(C#N)c2c(=O)n1CCOc1ccc(Cl)cc1-c1ccnc2c(C(=O)O)csc12 [compound 1939]
The IC50 of the first is 1.6-fold higher: 38.2 nM for the first, 24.5 nM for the second. The second is the more potent here.

`N#Cc1cc(F)cc2nc(C(F)F)n(CCOc3ccc(Cl)cc3-c3ccnc4c(C(=O)O)csc34)c(=O)c12` [compound 1938] and `N#Cc1ccc(F)c2nc(C(F)F)n(CCOc3ccc(Cl)cc3-c3ccnc4c(C(=O)O)csc34)c(=O)c12` [compound 1941] are within 1.5-fold of each other in IC50: 46.3 nM for the first, 61.6 nM for the second.

First: Cc1nc2cc(OC(F)F)cc(C#N)c2c(=O)n1CCOc1ccc(Cl)cc1-c1ccnc2c(C(=O)O)csc12 [compound 1940]
Second: Cc1nc2cc(Cl)c(C(F)F)c(C#N)c2c(=O)n1CCOc1ccc(Cl)cc1-c1ccnc2c(C(=O)O)csc12 [compound 1951]
The IC50 of the first is 1.8-fold higher: 34.9 nM for the first, 19.9 nM for the second.

Compared with `Cc1nc2c(Cl)ccc(C#N)c2c(=O)n1CCOc1ccc(Cl)cc1-c1ccnc2c(C(=O)O)csc12` [compound 1942], `Cc1nc2c(c(C#N)cc3ccccc32)c(=O)n1CCOc1ccc(Cl)cc1-c1ccnc2c(C(=O)O)csc12` [compound 1946] is 4.1-fold lower in IC50: 182 nM for the first, 44.7 nM for the second. The second is the more potent here.

First: N#Cc1ccc(C#N)c2c(=O)n(CCOc3ccc(Cl)cc3-c3ccnc4c(C(=O)O)csc34)c(C(F)F)nc12 [compound 1943]
Second: Cc1nc2c(F)cc(C(F)F)c(C#N)c2c(=O)n1CCOc1ccc(Cl)cc1-c1ccnc2c(C(=O)O)csc12 [compound 1944]
The IC50 of the first is 1.7-fold higher: 42.4 nM for the first, 24.9 nM for the second.

First: Cc1nc2c(F)cc(C(F)F)c(C#N)c2c(=O)n1CCOc1ccc(Cl)cc1-c1ccnc2c(C(=O)NS(C)(=O)=O)csc12 [compound 1945]
Second: Cc1nc2cc(F)c(F)c(C#N)c2c(=O)n1CCOc1ccc(Cl)cc1-c1ccnc2c(C(=O)O)csc12 [compound 1947]
The IC50 of the first is 1.5-fold higher: 44.9 nM for the first, 29.7 nM for the second.

Going from `Cc1nc2cc(S(=O)(=O)N(C)C)c(Cl)c(C#N)c2c(=O)n1CCOc1ccc(Cl)cc1-c1ccnc2c(C(=O)O)csc12` [compound 1948] to `Cc1nc2cc(Cl)c(C#N)c(C#N)c2c(=O)n1CCOc1ccc(Cl)cc1-c1ccnc2c(C(=O)O)csc12` [compound 1949], the IC50 falls from 35.6 nM to 21.6 nM (1.6-fold). The second is the more potent here.

Compared with `Cc1nc2cc3c(c(C#N)c2c(=O)n1CCOc1ccc(Cl)cc1-c1ccnc2c(C(=O)O)csc12)S(=O)(=O)N(C)C3` [compound 1953], `Cc1nc2cc3c(c(C#N)c2c(=O)n1CCOc1ccc(Cl)cc1-c1ccnc2c(C(=O)O)csc12)S(=O)(=O)N(C)CC3` [compound 1954] is 5.3-fold lower in IC50: 89.3 nM for the first, 17 nM for the second. The second is the more potent here.

`Cc1cc(-c2cc(Cl)ccc2OCCn2c(C)nc3c(C)nc(CN(C)C)cc3c2=O)c2scc(C(=O)O)c2n1` [compound 1959] and `Cc1cc(-c2cc(Cl)ccc2OCCn2c(C)nc3c(C#N)nc(C4CC4)c(C)c3c2=O)c2scc(C(=O)O)c2n1` [compound 1964] are within 1.5-fold of each other in IC50: 46.3 nM for the first, 49.8 nM for the second.

First: Cc1nc2cnc(N(C)C3CCN(CC(C)(F)F)CC3)c(C(N)=O)c2c(=O)n1CC#Cc1ccc(Cl)cc1-c1ccnc2c(C(=O)OC(C)(C)C)csc12 [compound 1960]
Second: Cc1cc(-c2cc(Cl)ccc2OCCn2c(C)nc3c(C4CC4)ncc(Cl)c3c2=O)c2scc(C(=O)O)c2n1 [compound 1963]
The IC50 of the first is 180-fold higher: 43200 nM for the first, 241 nM for the second.

From US11286268B1, “EIF4E-inhibiting compounds and methods” (EFFECTOR THERAPEUTICS, INC., priority 2019, dated 2022)
